Laboratory results from patent US5731334A, “Method for treating cancer using taxoid onium salt prodrugs” (priority 1995, dated 1998).

Columns and labels:
[1] = system: UCLA-P3 lung carcinoma cells; assay: XTT dye binding cytotoxicity assay, UCLA-P3; format: cell-based; conditions: Homo sapiens, UCLA P-3, 72 h
Protocol: (§1) All cell lines described herein were obtained from the ATCC and maintained in media formulations as recommended by the supplier. The cell lines were tested for mycoplasma contamination prior to incubation at 37° C. in 5% carbon dioxide. Normal human dermal fibroblasts, peripheral blood lymphoblasts and mammary epithelial cells were obtained from Clonogenic Cor., San Diego, Calif. and were maintained under the above incubation conditions in special media provided by the supplier.
(§2) Antiproliferative activities of the onium salts were determined using the XTT dye binding assay. Cells were harvested with trypsin/EDTA (Irvine Scientific), washed, resuspended in the appropriate medium, and counted in a hemocytometer using Trypan Blue to determine viability. Then 10^4 cells/well were added to 96 well microtiter plates and incubated for 24 hours before addition of drug at concentrations in the range of 10^-4 to 10^-13 molar by direct addition from DMSO solutions. After 72 hours, XTT binding dye was added and incubation was continued for 4 hours. The inhibition of cell proliferation was quantified using a Molecular Devices Microplate Reader. The absorbance of XTT was measured at […]. The concentration of drug which inhibited growth of cells by 50% was calculated from duplicated determinations.

[2] = system: M-24 metastatic melanoma cells; assay: XTT dye binding cytotoxicity assay, M-24; format: cell-based; conditions: Homo sapiens, M24; M-24, melanoma-metastatic; 72 h; read-out: IC50
Protocol: as §1, §2

[3] = system: PC-3 prostate carcinoma tumor xenograft; assay: PC-3 prostate tumor xenograft in nude mice
Protocol: (§3) Athymic nude mice were purchased from Harlan-Sprague-Dawley. The animals were housed in microisolated cases under positive air pressure and all manipulations and drug treatments were performed in a laminar flow cabinet. Tumor cells were grown under the above tissue culture conditions. Cell suspensions in RPMI medium were injected S./C. Treatment was started one day after inoculation by i.p. injection of 400 μl drug solutions. Tumors were measured 3 times weekly in two dimensions, using calipers and tumor volume as calculated using the formula (V=w^2 ×L×(3.142).
(§4) The tumor model was generated from an ATTC PC-3 prostate carcinoma cell line that was maintained under standard cell proliferation conditions, viz. 37° C., 5% carbon dioxide in sterile air. Each cohort was comprised of eight randomly chosen female athymic nude mice, for a total population size of twenty four. Hemocytometer counted cells, suspended in Hanks mediun (Gibco, Grand Island N.Y.) were implanted S.C. (10^6 cells in 0.4 mL per mouse). Solid tumor growth was measured on each third day. Equimolar amounts of the test compounds (1.0 mM, 400 μL) were injected i.p. on days 1, 3, 5, 7, 9, and 11 using the following media:
(§5) (.smallcircle.): Control, 5% dextrose in 5× distilled water (5 DW)
(§6) (Δ): Taxol (18.0 mg/kg of animal weight or approximately 1.260 mg/m^2) suspended in Cremaphor/D5W
(§7) Inferences about efficacy were drawn by ANOVA followed by protected t-test. […] Data shown as mean value with standard error.

[4] = system: A549 lung adenocarcinoma tumor xenograft; assay: Human lung adenocarcinoma A549 xenograft in nude mice; conditions: 1.0 mM, 400 μL i.p. days 1, 3, 5, 7, 9, 11
Protocol: as §3
The tumor model was generated from A549 cell line, an ATTC that was maintained under standard cell proliferation conditions (37° C., 5% carbon dioxide in sterile air). Each cohort was comprised of six randomly chosen female athymic nude mice, for a total population size of twenty four mice. Hemocytometer counted cells, suspended in Hanks mediun (Gibco, Grand Island N.Y.) were implated S.C. (10^6 cells in 0.4 mL per mouse). Solid tumor growth was measured on each third day. Equimolar amounts of the test compounds (1.0 mM, 400 μL) were injected i.p. on days 1, 3, 5, 7, 9, and 11 using the following media:
(Δ): Control, saline in 5× distilled water (5 DW)
(.smallcircle.): Taxol (18.0 mg/kg of animal weight or approximately 1,260 mg/m^2) suspended in Cremaphor/D5W […]

[5] = In vivo elimination in BALB/C mice; conditions: 24 hours after injection
Protocol: C-2'-MPA-Taxol (1 mM in 0.9% saline solution, 400 μL) was injected along with tritiated taxol at 32000 cpm into normal BALB/C mice (4 mice each) housed in metabolic cages and the urine and feces were measured periodically in a scintillation counter using Achillea scintillation fluid.
The antitumor activity of the onium salts of taxol were assessed in nude mice bearing tumors of human A-549 lung adenocarcinomas, Ovcar-3 ovarian carcinoma, and PC-3 prostate carcinoma cells. […] FIG. 5 illustrates antiproliferation results for 2'-MPA-3-thiophene-taxol (4) and 2' MPA taxol (2) for the Ovcar-3 human tumor xenograft. […] FIG. 6, summarizes the results for a PC-3, prostate tumor model study. Taxol was compared with both the 2'- and 7-substituted oxonium salts. […] Tritiated taxol and 2' MPA-taxol were used in drug elimination experiments in normal BALB/C mice. In both groups of mice of four animals each, only 4-5% of the administered radioactivity was measured in the combined urine and feces 24 hours after injection.

human tumor xenografts = assay: In vivo antitumor effect (human tumor xenografts in nude mice)
[6] = system: SK-N-SH neuroblastoma cells; assay: XTT dye binding cytotoxicity assay, SK-N-SH; format: cell-based; conditions: Homo sapiens, neuroblastoma, 72 h, read-out: IC50
Protocol: as §1, §2

[7] = system: 786-0 renal cell carcinoma cells; assay: XTT dye binding cytotoxicity assay, 786-0; format: cell-based; conditions: Homo sapiens; 786-0, renal cell carcinoma; 72 h; read-out: IC50
Protocol: as §1, §2

[8] = system: Molt-4 T-cell leukemia cells; assay: XTT dye binding cytotoxicity assay, Molt-4; format: cell-based; conditions: Homo sapiens; Molt-4, T-cell leukemia; 72 h; read-out: IC50
Protocol: as §1, §2

SK-Mel-28 melanoma cells = assay: XTT dye binding cytotoxicity assay, SK-Mel-28; format: cell-based; conditions: Homo sapiens; SK-Mel-28, melanoma; 72 h; read-out: IC50
Protocol: as §1, §2

[9] = system: A-549 lung carcinoma cells; assay: XTT dye binding cytotoxicity assay, A-549; format: cell-based; conditions: Homo sapiens, A549; A-549, lung carcinoma; 72 h; read-out: IC50
Protocol: as §1, §2

[10] = Comparative toxicities (lethality) in mice; conditions: in vivo
[11] = system: PC-3 prostate carcinoma cells; assay: XTT dye binding cytotoxicity assay, PC-3; format: cell-based; conditions: Homo sapiens, 72 h
Protocol: as §1, §2

[12] = system: HL-60 promyelocytic leukemia cells; assay: XTT dye binding cytotoxicity assay, HL-60; format: cell-based; conditions: Homo sapiens; HL-60, promyelocytic leukemia; 72 h; read-out: IC50
Protocol: as §1, §2

[13] = system: CHO Chinese hamster ovary cells; assay: XTT dye binding cytotoxicity assay, CHO; format: cell-based; conditions: Cricetulus griseus; CHO, Chinese hamster ovary (untransformed); 72 h; read-out: IC50
Protocol: as §1, §2

[14] = system: OVCAR-3 ovarian carcinoma cells; assay: XTT dye binding cytotoxicity assay, OVCAR-3; format: cell-based; conditions: Homo sapiens; OVCAR-3, ovarian carcinoma; 72 h; read-out: IC50
Protocol: as §1, §2

[15] = system: HT-29 colon carcinoma cells; assay: XTT dye binding cytotoxicity assay, HT-29; format: cell-based; conditions: Homo sapiens; HT-29, colon carcinoma; 72 h; read-out: IC50
Protocol: as §1, §2

[16] = system: SIHA squamous carcinoma cells; assay: XTT dye binding cytotoxicity assay, SIHA; format: cell-based; conditions: Homo sapiens; SIHA, squamous carcinoma; 72 h; read-out: IC50
Protocol: as §1, §2

[17] = system: PC-3 prostate carcinoma tumor xenograft; conditions: in vivo
Protocol: as §3, §4, §5, §6, §7

[18] = Toxicity and survival in vivo (tumor bearing nude mice)
NHDF dermal fibroblast = assay: XTT dye binding cytotoxicity assay, NHDF; format: cell-based; conditions: Homo sapiens, dermal fibroblast (untransformed), 72 h, read-out: IC50
Protocol: as §1, §2

L-1210 leukemia cells = assay: XTT dye binding cytotoxicity assay, L-1210; format: cell-based, mouse; conditions: L1210; L-1210, mouse leukemia; 72 h; read-out: IC50
Protocol: as §1, §2

[19] = system: BT-549 breast carcinoma cells; assay: XTT dye binding cytotoxicity assay, BT-549; format: cell-based; conditions: Homo sapiens; BT-549, breast carcinoma; 72 h; read-out: IC50
Protocol: as §1, §2

[20] = system: HMEC mammary epithelial cells; assay: XTT dye binding cytotoxicity assay, HMEC; format: cell-based; conditions: Homo sapiens, mammary epithelial cells (untransformed), 72 h, read-out: IC50
Protocol: as §1, §2

Which IC50 [1] does the source give for `CC(=O)O[C@H]1C(=O)[C@@]2(C)[C@H]([C@H](OC(=O)c3ccccc3)[C@]3(O)C[C@H](OC(=O)[C@H](Oc4cccc[n+]4C)[C@@H](NC(=O)c4ccccc4)c4ccccc4)C(C)=C1C3(C)C)[C@]1(OC(C)=O)CO[C@@H]1C[C@@H]2O` [Compound 2] here?
Its IC50 is 2.44 nM.

And the IC50 [2]?
The IC50 was 0.35 nM.

What about the “antitumor activity, PC-3” value ([3]; 1.0 mM, 400 μL i.p., established tumors) of the same molecule?
Its value is “regression of established tumors”.

What about the “complete remission with no palpable tumor mass, PC-3” value ([3]; at termination, after 24 days) of the same molecule?
Its value is 5 out of 8 animals.

What about the “tumor growth inhibition, A549” value [4] of the same molecule?
The value was “inhibited tumor growth nearly completely”.

And the “administered radioactivity in the combined urine and feces” value [5]?
The value was 4-5%.

What about the “in vivo antitumor efficacy in words” value (human tumor xenografts) of the same molecule?
Its value is “produced tumor regression with a high percentage of animals being free of measurable tumor masses at the end of the experiments”.

What about the IC50 [6] of the same molecule?
Its IC50 is 3.19 nM.

And the IC50 [7]?
Its IC50 is 27.4 nM.

And the IC50 [8]?
Its IC50 is 7.07 nM.

And the IC50 (SK-Mel-28 melanoma cells)?
Its IC50 is 87.9 nM.

What about the IC50 [9] of the same molecule?
The IC50 was 152 nM.

What about the “in vivo toxicity relative to taxol or taxotere” value [10] of the same molecule?
Its value is “much less toxic in vivo than taxol or taxotere”.

What about the Toxicity ([10]; mouse) of the same molecule?
The Toxicity was “minimal toxicity”.

And the lethality ([10]; mouse)?
Its lethality is “no lethality”.

What about the IC50 [11] of the same molecule?
The IC50 was 6.47 nM.

And the IC50 [12]?
Its IC50 is 0.25 nM.

And the IC50 [13]?
Its IC50 is 214 nM.

And the IC50 [14]?
The IC50 was 7.49 nM.

And the IC50 [15]?
The IC50 was 1.94 nM.

What about the IC50 [16] of the same molecule?
The IC50 was 3.78 nM.

And the “mice surviving treatment, PC-3” value [17]?
The value was “all of the mice given either the 2'- or 7-isomers survived”.

And the Toxicity ([18]; Table II, in vivo)?
The Toxicity was “low”.

What about the “% survival” value ([18]; at end of experiments) of the same molecule?
The value was 100%.

What about the “in vivo tolerance / toxicity in words” value ([18]; nude mice) of the same molecule?
Its value is “well tolerated, showing no visible toxic side effects and no significant weight loss”.

And the IC50 (NHDF dermal fibroblast)?
Its IC50 is 377 nM.

What about the IC50 (L-1210 leukemia cells) of the same molecule?
The IC50 was 12.8 nM.

And the IC50 [19]?
The IC50 was 5.72 nM.

And the IC50 [20]?
The IC50 was 127 nM.
